From patent US12084472B2 (Ardelyx, Inc., priority 2015, dated 2024)

biological target: T1, human TGR5 (Homo sapiens, UniProt Q8TDU6); test: Cell-based TGR5 assay (cAMP generation, HTRF); conditions: HEK293 cells stably transfected with human TGR5; cAMP by HTRF; 30 minutes at 37° C.; read-out: pEC50 Human TGR5 (converted)
T1 construct: expressed in transfected cells; host or cells: HEK293
T1 sequence (Q8TDU6 1-330): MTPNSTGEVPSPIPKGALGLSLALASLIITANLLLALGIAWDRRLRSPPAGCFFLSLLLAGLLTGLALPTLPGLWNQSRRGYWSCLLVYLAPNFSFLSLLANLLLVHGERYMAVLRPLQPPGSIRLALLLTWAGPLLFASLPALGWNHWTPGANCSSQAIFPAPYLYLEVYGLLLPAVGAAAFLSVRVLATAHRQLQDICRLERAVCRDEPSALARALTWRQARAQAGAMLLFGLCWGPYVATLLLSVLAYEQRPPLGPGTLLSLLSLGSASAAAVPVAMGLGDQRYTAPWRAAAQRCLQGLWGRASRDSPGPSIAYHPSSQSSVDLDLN
How it was run: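 Read-out was HTRF detection of cAMP, converted to concentration via a standard curve and fitted (3-parameter logistic) for pEC50 and maximal response. Agonist stimulation used HEK293 cells stably transfected with human TGR5, incubated 30 min at 37° C in IBMX-containing buffer at 0.05 nM to 10 μM compound.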

EC50 [nM]	Compound
126 to 1000	O=C(NC[C@H](O)[C@@H](O)[C@H](O)[C@H](O)CO)NC1CCN(S(=O)(=O)c2ccc(Cl)c(COC3(c4cnccc4-c4ccccc4OC4CC4)CC3)c2)C1 (stereo partly drawn) [Compound I-429, 1-{l-[4-chloro-3-({1-[4-(2-cyclopropoxyphenyl)pyridin-3-yl]cyclopropoxy}methyl)benzenesulfonyl]pyrrolidin-3-yl}-3-[(2S,3R,4R,5R)-2,3,4,5,6-pentahydroxyhexyl]urea]
< 100	CN(C[C@H](O)[C@@H](O)[C@H](O)[C@H](O)CO)C(=O)CN1CCN(C(=O)CCCCc2cc(Cl)c(COC3(c4cnccc4-c4ccccc4OC4CC4)CC3)cc2Cl)CC1 [Compound I-89, 2-(4-(5-(2,5-dichloro-4-((1-(4-(2-cyclopropoxyphenyl)pyridin-3-yl)cyclopropoxy)methyl)phenyl)pentanoyl)piperazin-1-yl)-N-methyl-N-((2S,3R,4R,5R)-2,3,4,5,6-pentahydroxyhexyl)acetamide]
< 100	Cc1ccc(C(C)CCCC(=O)N(CCS(C)(=O)=O)C[C@H](O)[C@@H](O)[C@H](O)[C@H](O)CO)cc1CNC1(c2cnccc2-c2ccccc2OC2CC2)CC1 (stereo partly drawn) [Compound I-369, 5-{3-[({1-[4-(2-cyclopropoxyphenyl)pyridin-3-yl]cyclopropyl}amino)methyl]-4-methylphenyl}-N-(2-methanesulfonylethyl)-N-[(2S,3R,4R,5R)-2,3,4,5,6-pentahydroxyhexyl]hexanamide]
126 to 1000	CSc1ccccc1-c1ccncc1C1(OCc2cc(Cl)ccc2Cl)CC1 [Compound I-739, 3-(1-((2,5-dichlorobenzyl)oxy)cyclopropyl)-4-(2-(methylthio)phenyl)pyridine]
< 100	O=C(NCCCCN(CCO)S(=O)(=O)c1ccc(Cl)c(COC2(c3cnccc3-c3ccccc3OC3CC3)CC2)c1)NC[C@H](O)[C@@H](O)[C@H](O)[C@H](O)CO [Compound I-414, 1-{4-[N-(2-hydroxyethyl)4-chloro-3-({1-[4-(2-cyclopropoxyphenyl)pyridin-3-yl]cyclopropoxy}methyl)benzenesulfonamido]butyl}-3-[(2S,3R,4R,5R)-2,3,4,5,6-pentahydroxyhexyl]urea]
< 100	O=C(NCCCSc1ccc(Cl)c(COC2(c3cnccc3-c3ccccc3OC3CC3)CC2)c1)NC[C@H](O)[C@@H](O)[C@H](O)[C@H](O)CO [Compound I-625, 1-(3-{[4-chloro-3-({1-[4-(2-cyclopropoxyphenyl)pyridin-3-yl]cyclopropoxy}methyl)phenyl]sulfanyl}propyl)-3-[(2S,3R,4R,5R)-2,3,4,5,6-pentahydroxyhexyl]urea]
126 to 1000	Cc1ccc(CCCCC(=O)N(C)C[C@H](O)[C@@H](O)[C@H](O)[C@H](O)CO)cc1CNC1(c2cnccc2-c2ccccc2OC2CC2)CC1 (stereo in doubt) [Compound I-238, 5-{3-[({1-[4-(2-cyclopropoxyphenyl)pyridin-3-yl]cyclopropyl}amino)methyl]-4-methylphenyl}-N-methyl-N-[(2S,3R,4R,5R)-2,3,4,5,6-pentahydroxyhexyl]pentanamide]
< 100	CC(C)N(CCCCNC(=O)N[C@@H](CO)[C@@H](O)[C@H](O)[C@H](O)CO)S(=O)(=O)c1ccc(Cl)c(CNC(C)(C)c2cnccc2-c2ccccc2OC2CC2)c1 [Compound I-754, 4-chloro-3-(((2-(4-(2-cyclopropoxyphenyl)pyridin-3-yl)propan-2-yl)amino)methyl)-N-isopropyl-N-(4-(3-((2S,3R,4S,5R)-1,3,4,5,6-pentahydroxyhexan-2-yl)ureido)butyl) benzenesulfonamide]
< 100	CN(C[C@H](O)[C@@H](O)[C@H](O)[C@H](O)CO)C(=O)CCCCc1ccc(Cl)c(COC2(c3cnccc3-c3ccccc3OC3CC3)CC2)c1 (stereo in doubt) [Compound I-232, 5-[4-chloro-3-({1-[4-(2-cyclopropoxyphenyl)pyridin-3-yl]cyclopropoxy}methyl)phenyl]-N-methyl-N-[(2S,3R,4R,5R)-2,3,4,5,6-pentahydroxyhexyl]pentanamide]
< 100	O=S(=O)(Nc1ccccc1)c1ccc(Cl)c(COC2(c3cnccc3-c3ccccc3OC3CC3)CC2)c1 [Compound I-771, 4-chloro-3-((1-(4-(2-cyclopropoxyphenyl)pyridin-3-yl)cyclopropoxy)methyl)-N-phenylbenzenesulfonamide]
< 100	O=C(NCCCCCSc1ccc(Cl)c(COC2(c3cnccc3-c3ccccc3OC3CC3)CC2)c1)NC[C@H](O)[C@@H](O)[C@H](O)[C@H](O)CO [Compound I-488, 1-(5-[[4-Chloro-3-([1-[4-(2-cyclopropoxyphenyl)pyridin-3-yl]cyclopropoxy]methyl)phenyl]sulfanyl]pentyl)-3-[(2S,3R,4R,5R)-2,3,4,5,6-pentahydroxyhexyl]urea]
< 100	C[C@@H](CCCC(=O)N(C)C[C@H](O)[C@@H](O)[C@H](O)[C@H](O)CO)c1ccc(Cl)c(CNC2(c3cnccc3-c3ccccc3OC3CC3)CC2)c1 (single isomer, unassigned) [Compound I-325]
< 100	Cc1ccc(S(=O)(=O)N(C)CCCCNC(=O)N[C@@H](CO)[C@@H](O)[C@H](O)[C@H](O)CO)cc1CNC1(c2cnccc2-c2ccccc2OC2CC2)CC1 [Compound I-478, 1-(4-{N-methyl3-[({1-[4-(2-cyclopropoxyphenyl)pyridin-3-yl]cyclopropyl}amino)methyl]-4-methylbenzenesulfonamido}butyl)-3-[(2S,3R,4S,5R)-1,3,4,5,6-pentahydroxyhexan-2-yl]urea]
< 100	CC(CCSc1ccc(Cl)c(COC2(c3cnccc3-c3ccccc3OC3CC3)CC2)c1)C(=O)N(C)C[C@H](O)[C@@H](O)[C@H](O)[C@H](O)CO (stereo partly drawn) [Compound I-689, 4-{[4-chloro-3-({1-[4-(2-cyclopropoxyphenyl)pyridin-3-yl]cyclopropoxy}methyl)phenyl]sulfanyl}-N,2-dimethyl-N-[(2S,3R,4R,5R)-2,3,4,5,6-pentahydroxyhexyl]butanamide]
126 to 1000	O=C(CCCSc1ccc(Cl)c(COC2(c3cnccc3-c3ccccc3OC3CC3)CC2)c1)N(CCO)C[C@H](O)[C@@H](O)[C@H](O)[C@H](O)CO [Compound I-660, 4-{[4-chloro-3-({1-[4-(2-cyclopropoxyphenyl)pyridin-3-yl]cyclopropoxy}methyl)phenyl]sulfanyl}-N-(2-hydroxyethyl)-N-[(2S,3R,4R,5R)-2,3,4,5,6-pentahydroxyhexyl]butanamide]
< 100	CN(CCCCN(C)S(=O)(=O)c1ccc(Cl)c(COC2(c3cnccc3-c3ccccc3OC3CC3)CC2)c1)C(=O)[C@@H](O)[C@@H](O)[C@H](O)[C@@H](O)CO [Compound I-461, (2S,3S,4R,5S)-2,3,4,5,6-pentahydroxy-N-methyl-N-{4-[N-methyl4-chloro-3-({1-[4-(2-cyclopropoxyphenyl)pyridin-3-yl]cyclopropoxy}methyl)benzenesulfonamido]butyl}hexanamide]
< 100	Cc1cc(COC2(c3cnccc3-c3ccccc3OC3CC3)CC2)c(Cl)cc1CCCCNC(=O)NCC(=O)NCC(=O)NCC(=O)O [Compound I-111, 2-(2-{2-[({4-[5-chloro-4-({1-[4-(2-cyclopropoxyphenyl)pyridin-3-yl]cyclopropoxy}methyl)-2-methylphenyl]butyl}carbamoyl)amino]acetamido}acetamido)acetic acid]
